{"source": "ChEMBL document CHEMBL5365457", "about": "“Selective HDAC3 Inhibitors with Potent In Vivo Antitumor Efficacy against Triple-Negative Breast Cancer” (J Med Chem, 2023)", "key": {"[1]": {"test": "Toxicity in BALB/c mouse implanted with mouse 4T1 cells assessed as effect on cell size in liver at 5 to 15 mg/kg, ip measured after 21 days by H and E staining based assay", "assay_type": "organism-based", "conditions": "in vivo, 504 h, dose 5-15 mg/kg, time 21 day"}, "[2]": {"test": "Apparent volume of distribution in Wistar rat at 15 mg/kg, ip measured upto 24 hrs by HPLC analysis", "assay_type": "ADME, organism-based", "conditions": "in vivo"}, "[3]": {"test": "Cmax in Wistar rat at 5 mg/kg, ip measured upto 24 hrs by HPLC analysis", "assay_type": "ADME, organism-based", "parameters": "time < 24 hrs, dose 5 mg/kg, route ip", "conditions": "in vivo"}, "[4]": {"test": "Toxicity in BALB/c mouse implanted with mouse 4T1 cells assessed as effect on cell size in heart at 5 to 15 mg/kg, ip measured after 21 days by H and E staining based assay", "assay_type": "organism-based", "conditions": "in vivo, 504 h, dose 5-15 mg/kg, time 21 day"}, "[5]": {"system": "4T1", "test": "Induction of apoptosis in mouse 4T1 cells at 110 nM incubated for 72 hrs by annexin/PI staining based flow cytometry analysis (reference value: 1.35%)", "assay_type": "functional"}, "[6]": {"system": "4T1", "test": "Antitumor activity against mouse 4T1 cells implanted in BALB/c mouse assessed as increase in number of lung nodules at 15 mg/kg, ip measured for 7 days by fluorescence based assay", "assay_type": "functional, organism-based", "conditions": "time 7.0 day"}, "[7]": {"test": "Toxicity in BALB/c mouse implanted with mouse 4T1 cells assessed as neutrophilic infiltration in liver at 5 to 15 mg/kg, ip measured after 21 days", "assay_type": "organism-based", "conditions": "in vivo, 504 h, dose 5-15 mg/kg, time 21 day"}, "[8]": {"system": "4T1", "test": "Cytotoxicity against mouse 4T1 cells assessed as inhibition of cell growth incubated for 72 hrs by MTT assay", "assay_type": "functional, cell-based", "conditions": "4T1, 72 h"}, "[9]": {"test": "Selectivity ratio of IC50 for cytotoxicity against human MCF-10A cells assessed as inhibition of cell growth to IC50 for cytotoxicity against human MDA-MB-453 cells assessed as inhibition of cell growth", "assay_type": "toxicity, cell-based", "conditions": "MCF-10A cells versus MDA-MB-453 cells, read-out: Ratio IC50"}, "[10]": {"test": "Toxicity against BALB/c mouse implanted with mouse 4T1 cells assessed as body weight loss at 5 to 15 mg/kg,ip administered 5 times a week for 21 days", "assay_type": "organism-based", "conditions": "in vivo, 504 h, dose 5-15 mg/kg, time 21 day"}, "[11]": {"test": "AUC (0 to t) in Wistar rat at 5 mg/kg, ip measured upto 24 hrs by HPLC analysis", "assay_type": "ADME, organism-based", "parameters": "dose 5 mg/kg, time < 24 hrs, route ip", "conditions": "in vivo"}, "[12]": {"system": "4T1", "test": "Antitumor activity against mouse 4T1 cells implanted in BALB/c mouse assessed as reduction in tumor volume at 5 mg/kg, ip administered 5 times a week for 21 days (reference value: 52.05+/-13.23 mm3)", "assay_type": "functional", "conditions": "time 21 day"}, "[13]": {"system": "MCF7", "test": "Cytotoxicity against human MCF7 cells assessed as inhibition of cell growth incubated for 72 hrs by MTT assay", "assay_type": "functional, cell-based", "conditions": "MCF7, 72 h"}, "[14]": {"biological_target": "T1, Histone deacetylase 3 (Mus musculus) (UniProt O88895)", "T1 sequence (whole entry)": "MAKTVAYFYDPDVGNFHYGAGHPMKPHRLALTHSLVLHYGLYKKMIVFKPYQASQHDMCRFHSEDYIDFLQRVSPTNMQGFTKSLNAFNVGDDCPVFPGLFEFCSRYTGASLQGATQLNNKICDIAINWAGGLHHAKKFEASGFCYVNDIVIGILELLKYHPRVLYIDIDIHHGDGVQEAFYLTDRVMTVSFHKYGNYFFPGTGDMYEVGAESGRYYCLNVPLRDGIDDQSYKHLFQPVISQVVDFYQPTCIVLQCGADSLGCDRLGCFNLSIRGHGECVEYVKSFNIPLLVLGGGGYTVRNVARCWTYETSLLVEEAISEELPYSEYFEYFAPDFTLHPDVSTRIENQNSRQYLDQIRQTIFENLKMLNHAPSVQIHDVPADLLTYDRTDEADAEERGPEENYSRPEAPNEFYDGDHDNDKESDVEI", "test": "Inhibition of HDAC3 in mouse 4T1 cells assessed as increase in acetylation of H3K9 level at 1 uM incubated for 72 hrs by western blot analysis", "assay_type": "cell-based"}, "[15]": {"system": "4T1", "test": "Antitumor activity against mouse 4T1 cells implanted in BALB/c mouse assessed as tumor growth inhibition at 15 mg/kg, ip measured on day 7", "assay_type": "functional", "conditions": "4T1, 168 h, time 7 day, read-out: TGI"}, "[16]": {"test": "Selectivity ratio of IC50 for cytotoxicity against human HCEC cells assessed as inhibition of cell growth to IC50 for cytotoxicity against human MDA-MB-231 cells assessed as inhibition of cell growth", "assay_type": "toxicity, cell-based", "conditions": "HCEC cells versus MDA-MB-231 cells, read-out: Ratio IC50"}, "[17]": {"biological_target": "T1, Histone deacetylase 3 (Mus musculus)", "test": "Inhibition of HDAC3 in mouse 4T1 cells assessed as increase in acetylation of H4K12 level at 1 uM incubated for 72 hrs by western blot analysis", "assay_type": "cell-based"}, "[18]": {"test": "Apparent volume of distribution in Wistar rat at 5 mg/kg, ip measured upto 24 hrs by HPLC analysis", "assay_type": "ADME, organism-based", "conditions": "in vivo"}, "[19]": {"test": "Half life in Wistar rat at 5 mg/kg, ip measured upto 24 hrs by HPLC analysis", "assay_type": "ADME, organism-based", "conditions": "in vivo"}, "[20]": {"test": "MRT (0 to infinity) in Wistar rat at 15 mg/kg, ip measured upto 24 hrs by HPLC analysis", "assay_type": "ADME, organism-based", "conditions": "in vivo"}, "[21]": {"system": "4T1", "test": "Antitumor activity against mouse 4T1 cells implanted in BALB/c mouse assessed as reduction in tumor growth at 5 to 15 mg/kg, ip administered 5 times a week for 21 days", "assay_type": "functional, organism-based", "conditions": "dose 5-15 mg/kg, time 21.0 day"}, "[22]": {"test": "AUC (0 to infinity) in Wistar rat at 15 mg/kg, ip measured upto 24 hrs by HPLC analysis", "assay_type": "ADME, organism-based", "parameters": "dose 15 mg/kg, time < 24 hrs, route ip", "conditions": "in vivo"}, "[23]": {"test": "Selectivity ratio of IC50 for cytotoxicity against human HEK293 cells assessed as inhibition of cell growth to IC50 for cytotoxicity against human MDA-MB-453 cells assessed as inhibition of cell growth", "assay_type": "toxicity, cell-based", "conditions": "HEK293 cells versus MDA-MB-453 cells, read-out: Ratio IC50"}, "[24]": {"test": "Cytotoxicity against human HCEC cells assessed as inhibition of cell growth incubated for 72 hrs by MTT assay", "assay_type": "toxicity, cell-based", "conditions": "human, HCEC cells"}, "[25]": {"system": "4T1", "test": "Induction of apoptosis in mouse 4T1 cells assessed as increase cytochrome c level by Western blot analysis", "assay_type": "functional, cell-based", "conditions": "dose 1.0 µM"}, "[26]": {"test": "Toxicity in BALB/c mouse implanted with mouse 4T1 cells assessed as neutrophilic infiltration in kidney at 5 to 15 mg/kg, ip measured after 21 days", "assay_type": "organism-based", "conditions": "in vivo, 504 h, dose 5-15 mg/kg, time 21 day"}, "[27]": {"biological_target": "Histone deacetylase 1 (Homo sapiens, UniProt Q13547)", "sequence (Q13547 whole entry)": "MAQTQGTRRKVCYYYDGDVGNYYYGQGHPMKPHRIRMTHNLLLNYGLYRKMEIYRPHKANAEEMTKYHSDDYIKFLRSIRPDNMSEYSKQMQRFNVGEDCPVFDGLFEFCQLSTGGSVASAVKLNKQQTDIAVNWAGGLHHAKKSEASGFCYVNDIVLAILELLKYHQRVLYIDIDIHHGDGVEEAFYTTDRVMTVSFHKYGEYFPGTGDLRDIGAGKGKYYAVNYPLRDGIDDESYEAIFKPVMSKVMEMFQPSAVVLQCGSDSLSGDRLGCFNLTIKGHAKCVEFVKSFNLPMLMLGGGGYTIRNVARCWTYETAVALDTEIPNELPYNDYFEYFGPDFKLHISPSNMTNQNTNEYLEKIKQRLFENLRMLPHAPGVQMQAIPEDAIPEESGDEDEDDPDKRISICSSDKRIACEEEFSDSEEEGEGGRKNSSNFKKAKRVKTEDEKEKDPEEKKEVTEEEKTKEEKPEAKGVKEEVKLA", "test": "Inhibition of human recombinant HDAC1 incubated for 15 mins by fluorescence based microplate analysis"}, "[28]": {"test": "AUC (0 to infinity) in Wistar rat at 5 mg/kg, ip measured upto 24 hrs by HPLC analysis", "assay_type": "ADME, organism-based", "parameters": "dose 5 mg/kg, time < 24 hrs, route ip", "conditions": "in vivo"}, "[29]": {"test": "Toxicity in BALB/c mouse implanted with mouse 4T1 cells assessed as effect on cell shape in kidney at 5 to 15 mg/kg, ip measured after 21 days by H and E staining based assay", "assay_type": "organism-based", "conditions": "in vivo, 504 h, dose 5-15 mg/kg, time 21 day"}, "[30]": {"test": "Tmax in Wistar rat at 5 mg/kg, ip measured upto 24 hrs by HPLC analysis", "assay_type": "ADME, organism-based", "conditions": "in vivo"}, "[31]": {"system": "4T1", "test": "In-vivo inhibition of HDAC3 in ip dosed BALB/c mouse implanted with mouse 4T1 cells assessed as hyperacetylation of H4K12 level by Western blot analysis", "assay_type": "functional, organism-based", "conditions": "dose 5-15 mg/kg"}, "[32]": {"test": "Selectivity ratio of IC50 for cytotoxicity against human HEK293 cells assessed as inhibition of cell growth to IC50 for cytotoxicity against human MDA-MB-231 cells assessed as inhibition of cell growth", "assay_type": "toxicity, cell-based", "conditions": "HEK293 cells versus MDA-MB-231 cells, read-out: Ratio IC50"}}, "note": "Active and inactive are the calls of the source. The calls are words filed in the database; no cut-off is given here."}
{"smiles": "CCCNNC(=O)c1cnc(NCc2ccc(OC)cc2)cn1", "values": [{"measurement": "Activity", "setting": "[1]", "result": "Non-Toxic"}, {"measurement": "Vz/F", "setting": "[2]", "result": "12.57 (mg/kg)/(ug/ml)"}, {"measurement": "Cmax", "setting": "[3]", "result": 1110, "unit": "ng/mL"}, {"measurement": "Activity", "setting": "[4]", "result": "Non-Toxic"}, {"measurement": "Activity", "setting": "[5]", "result": 36.8, "unit": "%"}, {"measurement": "Activity", "setting": "[6]", "result": "Active"}, {"measurement": "Activity", "setting": "[7]", "result": "Non-Toxic"}, {"measurement": "IC50", "setting": "[8]", "result": 0.55, "unit": "µM"}, {"measurement": "selectivity ratio", "setting": "[9]", "result": 385}, {"measurement": "Activity", "setting": "[10]", "result": "Non-Toxic"}, {"measurement": "AUC(0-t) at 24 h", "setting": "[11]", "result": 4050, "unit": "ng·h/mL"}, {"measurement": "Activity", "setting": "[12]", "result": 185.23, "unit": "mm3"}, {"measurement": "IC50", "setting": "[13]", "result": 0.95, "unit": "µM"}, {"measurement": "inhibition", "setting": "[14]", "result": "Active"}, {"measurement": "inhibition in vivo at 15 mg/kg", "setting": "[15]", "result": 84.9, "unit": "%"}, {"measurement": "selectivity ratio", "setting": "[16]", "result": 286}, {"measurement": "inhibition", "setting": "[17]", "result": "Active"}, {"measurement": "Vz/F", "setting": "[18]", "result": "7.01 (mg/kg)/(ug/ml)"}, {"measurement": "half-life", "setting": "[19]", "result": 7.19, "unit": "h"}, {"measurement": "MRT inf", "setting": "[20]", "result": 6.57, "unit": "h"}, {"measurement": "Activity", "setting": "[21]", "result": "Active"}, {"measurement": "AUC(0-inf)", "setting": "[22]", "result": 20600, "unit": "ng·h/mL"}, {"measurement": "selectivity ratio", "setting": "[23]", "result": 286}, {"measurement": "IC50 at 72 h", "setting": "[24]", "result": 212, "unit": "µM"}, {"measurement": "Activity", "setting": "[25]", "result": "Dose-Dependent Effect"}, {"measurement": "Activity", "setting": "[26]", "result": "Non-Toxic"}, {"measurement": "IC50", "setting": "[27]", "result": 1.98, "unit": "µM"}, {"measurement": "AUC(0-inf)", "setting": "[28]", "result": 4320, "unit": "ng·h/mL"}, {"measurement": "Activity", "setting": "[29]", "result": "Non-Toxic"}, {"measurement": "Tmax", "setting": "[30]", "result": 2, "unit": "h"}, {"measurement": "inhibition", "setting": "[31]", "result": "Dose-Dependent Effect"}, {"measurement": "selectivity ratio", "setting": "[32]", "result": 286}]}
